Holding throughout (format): cell-based, mixed culture of oil field bacteria
Experiment [1] deals with mixed oilfield bacterial consortia. Kind of experiment: Biocidal activity on mixed oilfield bacterial consortia (bacterial counts). As for the experimental part: (§1) A mixed culture of oil field bacteria with Sulphate Reducing Bacteria (SRB), Acid Producing Bacteria (APB), and General Heterotrophic Bacteria (GHB) that came from an oil field system and had been frozen in glycerol maintained at −80° C. was used to study the effect of the test chemical compounds on biofilm formation and control thereof.
(§2) Biofilm tests were performed in 3.5 weight-% nutrient brine (NB) solution with minimal nutrients and a mixture of dodecane isomers, which are customary in oil field production waters and storage tanks.
(§3) The oilfield bacteria consortia was inoculated into the 3.5 weight-% nutrient brine solution and allowed to acclimate overnight at 32° C. in bulk. After acclimation, the solution was divided into 250 mL Pyrex bottles to contain 200 mL of the inoculated 3.5 weight-% nutrient brine and 25 mL of dodecane. Biofilms were grown on glass slides as removable attachment surfaces. Bottles were incubated at 32° C. with a rotary shaking (75 rpm) providing medium flow in each container.
(§4) Reactors each containing 200 mL of 3.5% nutrient brine were inoculated with the oilfield bacterial consortia and 25 mL of dodecane was treated with different amounts of the chemical compounds to be tested. A nitrogen blanket was added to the top of each reactor to minimize the oxygen content and allow a beneficial environment for anaerobic bacterial growth. […]

The test system of experiment [2] is biofilm of mixed oilfield consortia. As to the kind of experiment: Quantification of formed biofilm, weight gain of glass slides. On the set-up: average weight gain of Slides A and B: unit: mg. Conditions: for average weight gain of Slides A and B: day 6; for Slide A weight gain: slide removed day 6, dried and weighed without further manipulation; for Slide B weight gain: slide removed day 6, scraped at 1 cm^2, then dried and weighed. As for the experimental part: as §1, §2, §3
Two glass slides were added to each reactor bottle as described above and below and were removed at the end of the 6-day test for observation of biofilm accumulation, with the following considerations. For biofilm control experiments comprising biofilm removal from glass slides in 3.5% nutrient brine media inoculated with the mixed oilfield bacterial cultures and dodecane, biofilm was grown without addition of any test chemical compound to be tested in the control. In the reactors containing the test chemical compound, they were re-dosed daily for 5 days. A nitrogen blanket was added to each reactor after each dosing.
As described above, two glass slides were added to each reactor bottle. One was used for bacterial counts and the second was used to observe for biofilm accumulation. The second glass slide used to observe for growth was rinsed with deionized water, dried for 20 hours at 70° C., weighed and photographed. The weight values shown in the following tables are weights from 3 replicate reactor bottles. All weight values are given as actual measured values of the glass slides.
Table 3 presents results related to the effect on biofilm biomass of Compound A and AMA-324 dosing on the mixed oilfield consortia in 3.5 weight-% nutrient brine with dodecane at 32° C. and 75 rpm. Compound A was dosed daily for 5 days. AMA-324 was dosed at initial set-up only. Two glass slides were each weighed and added to each test container at set-up. After dosing for 5 days, at day 6, the slides were removed for analysis. Slide A was dried and weighed without further manipulation. Slide B was scrapped at 1 cm^2 with a sterile wooden stick into sterile phosphate buffer solution for bacterial counts. The scraped glass slide was then dried and weighed.

Experiment [3] deals with Sulphate Reducing Bacteria (SRB). Kind of experiment: Sessile bacterial counts from biofilm scraped off glass slides, SRB. Conditions: slide scraped day 6, 3.5% nutrient brine with dodecane, 32° C., 75 rpm. As for the experimental part:
as §1, §2, §3, §4

In experiment [4] the test system is Acid Producing Bacteria (APB). Kind of experiment: Bacterial growth control test, planktonic bacterial counts, APB. Conditions: 75 ppm AMA-324 (active ingredient), sampled day 6; 3.5% nutrient brine with dodecane, 32° C., 75 rpm. As for the experimental part: as §1, §2, §3, §4
For experiment [5], the system named is General Heterotrophic Bacteria (GHB). Kind of experiment: Bacterial growth control test, planktonic bacterial counts, GHB. As to conditions: 75 ppm AMA-324 (active ingredient), sampled day 6; 3.5% nutrient brine with dodecane, 32° C., 75 rpm. As for the experimental part:
as §1, §2, §3, §4

In experiment [6] the test system is Sulphate Reducing Bacteria (SRB). As to the kind of experiment: Bacterial growth control test, planktonic bacterial counts, SRB. Conditions: 75 ppm AMA-324 (active ingredient), sampled day 6; 3.5% nutrient brine with dodecane, 32° C., 75 rpm. As for the experimental part: as §1, §2, §3, §4
A further experiment concerns biofilm biomass. As to the kind of experiment: Optical density measurements of biofilm biomass. Conditions: data not shown.
Where [7] appears, read: 75 ppm AMA-324 dosed at initial set-up only.
[8] abbreviates: 2 ppm Compound A dosed daily for 5 days.
Setting [9] is: 5 ppm Compound A dosed daily for 5 days.

These results are taken from patent publication US20220142160A1, “METHOD OF INHIBITING OR REDUCING BIOFILM IN A PETROLEUM PRODUCTION PROCESS” (KEMIRA OYJ, priority 2019, published 2022).

The structures appear in SMILES notation. Values joined by “and” are separate entries in the source; they are usually repeats but may differ in a detail not shown here. Equal entries are not always repeated. A value given as a limit tells only on which side of the number the result lay.

With `CN1CSC(=S)N(C)C1` [AMA-324, Tetrahydro-3,5-dimethyl-2H-1,3,5-thiadiazine-2-thione, reference compound], the “biocidal activity (bacterial counts as compared to the control)” value in experiment [1] (dosage of 75 ppm active ingredient alone) is given as “acted as a biocide”. Also, in experiment [2] (setting [7]), the “average weight gain of Slides A and B” value was 1.60 and 2.05 and 1.85; the “Slide A weight gain” value is 1.35 mg and 1.95 mg and 1.6 mg; the “Slide B weight gain” value is 1.85 mg and 2.15 mg and 2.1 mg. The “Sessile Bacterial Counts/mL SRB bacterial” value in experiment [3] (75 ppm AMA-324 (active ingredient)) was less than 0.6 Counts/mL. Further, the “Planktonic Bacterial Counts/mL APB bacteria” value in experiment [4] is less than 0.3 Counts/mL. Besides, the “Planktonic Bacterial Counts/mL GHB bacteria” value in experiment [5] was less than 0.3 Counts/mL. In experiment [6], the “Planktonic Bacterial Counts/mL SRB bacteria” value was less than 0.3 Counts/mL.

On to `Cc1ccc(S(=O)(=O)C=CC#N)cc1` [Compound A, 3-[(4-methylphenyl)sulfonyl]-2-propenenitrile], for which the “biocidal activity (bacterial counts as compared to the control)” value in experiment [1] (dosage range of 1 ppm to 5 ppm, mixed oilfield bacterial consortia, anaerobic environment) is “did not act as a biocidal agent”. Besides, in experiment [2] (setting [8]), the “average weight gain of Slides A and B” value was 0.22 and 0.40 and 0.20; the “Slide B weight gain” value was 0.15 mg and 0.2 mg and 0.3 mg. Besides, in experiment [2] (setting [9]), the “average weight gain of Slides A and B” value was 0.65 and 0.50 and 0.88; the “Slide A weight gain” value was 0.7 mg and 0.75 mg and 0.85 mg. For the same molecule, the “biofilm formation (weight of slides versus control or AMA-324)” value in experiment [2] (Table 3 results, 1 to 5 ppm dosed daily for 5 days) is “very effectively reduced biofilm formation”. The “Sessile Bacterial Counts/mL SRB bacterial” value in experiment [3] (5.0 ppm Compound A dosed daily for 5 days) was determined as 1.90E+07 Counts/mL. Further, in the experiment on biofilm biomass, the “amount of biofilm biomass by optical density measurements” value is reported as “decreased the amount of biofilm biomass”.
